Reference: patent US5607707A, “Compositions” (priority 1992, dated 1997)

Legend:
[1] = Experimental: The colour stability of the compositions according to the present invention were determined using the following simulated shelf and accelerated storage tests.
This is illustrated with data from a study in which combinations of β-carotene, apo-carotenal and ascorbic acid were incorporated in a typical beverage formulation. The products were stored in bright daylight conditions for a period of 30 days and the colour loss at the end of this period was determined by spectrophotometry.

[2] = Water solubility / dissolution; format: physicochemical; conditions: primary addition of apo-carotenal, in words
[3] = Effect of temperature on amount of emulsifier required to achieve optical clarity (Example 6); format: physicochemical; conditions: for Tween 60 required to achieve optical clarity: 1 g crystalline β-carotene
Experimental: One advantage of the present invention is the wide range of temperatures which can be used in b) above. The temperature developed in mixing in b) is preferably 80°-160° or 180°-200° C. The lower temperatures are particularly useful where more temperature sensitive ingredients are involved. […] Therefore to minimise the amount of emulsifier(s) used, a temperature of not less than 160° C. or preferably 180° C. is preferred. The use of these high temperatures incurs the risk of degradation of pigment unless suitable precautions are taken. For example it is necessary to incorporate an antioxidant in the initial stages of preparation and it is desirable to exclude oxygen by heating the mixture in an atmosphere of nitrogen.
1 g of crystalline β-carotene required the following amounts of Tween 60 at the temperatures stated

Row | effect on dissolution of carotene [2] | Tween 60 required to achieve optical clarity ([3]; 140 °C) | Tween 60 required to achieve optical clarity ([3]; 160 °C) | Tween 60 required to achieve optical clarity ([3]; 180 °C) | Tween 60 required to achieve optical clarity ([3]; 200 °C) | Structure (SMILES) | stabilising effect on colour [1] | effect of temperature on emulsifier required to achieve optical clarity ([3]; pure β-carotene, in words)
1 | promoting the dissolution of carotene |  |  |  |  | CC(C=O)=CC=CC(C)=CC=CC=C(C)C=CC=C(C)C=CC1=C(C)CCCC1(C)C [apo-carotenal, β-8'-apo-carotenal] | helps to stabilise β-carotene | 
2 |  |  |  |  |  | O=C1O[C@H]([C@@H](O)CO)C(O)=C1O [ascorbic acid] | effective in reinforcing the stabilising effect of the antioxidants | 
3 |  | 10.5 g | 7.5 g | 4.0 g | 3.0 g | CC1=C(/C=C/C(C)=C/C=C/C(C)=C/C=C/C=C(C)/C=C/C=C(C)/C=C/C2=C(C)CCCC2(C)C)C(C)(C)CCC1 [crystalline β-carotene, β-carotene] |  | an increase in temperature permits a reduction in the amount of emulsifier(s) required
